According to ChEMBL document CHEMBL1201862, “PubChem BioAssay data set” (2004):
The source made the active and inactive calls.

How the values were obtained:
Paired box protein Pax-8 = Paired box protein Pax-8 (Homo sapiens, UniProt Q06710); experiment: PAX8 transcriptional activity inhibition in RMG-I – RMG-I cells, luciferase, cherry-pick, dose response (AID 687027); format: functional, cell-based;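 also: luciferase reporter driven by Pax8 target thyroperoxidase promoter measured by SteadyGlo luminescence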
[1] = OVCAR-3 cell viability loss – plate reader, dry powder samples, PAX8 inhibitor project, dose response (AID 743044); format: functional, cell-based
[2] = IGROV1 cell killing – plate reader, dry powder samples, PAX8 inhibitor project, dose response (AID 743043); format: functional, cell-based; conditions: IGROV-1
[3] = general cell-killing toxicity readout – plate reader, dry powder samples, cytotoxicity control for PAX8 inhibitor project, dose response (AID 743021); format: functional, cell-based
[4] = OVCAR8 cell viability loss – plate reader, dry powder samples, PAX8 project, dose response (AID 743197); format: functional, cell-based; conditions: OVCAR-8
[5] = viability loss in HepG2 hepatoma cells – cell-based, ATP luminescence, cherry-pick, activator set 2, cytotoxicity control, dose response (AID 1053143); format: functional
Vero = experiment: viability loss in Vero cells – cell-based, plate reader, cherry-pick samples, cytotoxicity control, dose response (AID 687020); format: functional; conditions: Chlorocebus sabaeus
A549 = experiment: viability loss in A549 cells – cell-based, plate reader, cherry-pick samples, cytotoxicity control, dose response (AID 687028); format: functional; conditions: Homo sapiens
cells = format: functional, cell-based
[6] = biological target: Nuclear receptor subfamily 0 group B member 1 (Homo sapiens, UniProt P51843); format: functional, cell-based;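 also: HEK293T cells transfected with SF-1 and DAX-1 plus StAR promoter luciferase reporter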
[7] = A549 cell cytotoxicity, dose response, cytotoxicity control, plate reader, cherry-pick, antagonist series (AID 743412); format: functional, cell-based
[8] = toxicity toward HepG2 liver cells – cell-based, plate reader, cherry-pick, antagonist series, cytotoxicity control, dose response (AID 743416); format: functional
[9] = blockers of bursicon-stimulated LGR2 cAMP reporter – cell-based, HEK293, CRE-luciferase reporter, cherry pick, set 2, dose response (AID 743343); format: functional;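 also: transfected cells were stimulated with diluted bursicon conditioned medium after compound addition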
[10] = blockade of melanocortin 4 receptor signaling – cell-based, plate reader, cherry pick, counter-screen for LGR2 antagonist project, dose response (AID 743444); format: functional;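 also: transfected HEK 293 cells stimulated with alpha-MSH peptide; potency of inhibitors of the alpha-MSH evoked signal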
[11] = viability loss in HEK293 cells – cell-based, plate reader, cherry-picked samples, cytotoxicity control, dose response (AID 743446); format: functional
[12] = blockers of HIV-1 envelope-mediated cell-cell fusion – cherry-pick, dose response (AID 652057); format: functional, cell-based
[13] = viability loss in CEM21 cells – cell-based, CellTiter-Glo luminescence, cherry-picked, cytotoxicity control for viral fusion inhibitor project, dose response (AID 652042); format: functional;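 also: potency for signal decrease meaning cytotoxicity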
[14] = blockers of HIV-1 ZM109 envelope-driven cell-cell fusion – HeLa effector, CEM target cells, luciferase, cherry-pick, dose response (AID 652058); format: functional, cell-based;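 also: luciferase signal from HIV-1 Env mediated cell-cell fusion of effector and target cells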
[15] = off-target signal loss in HeLa-CEM21 co-culture – HeLa F-luc CTL cells, cherry-picked, counter-screen for HIV-1 Env fusion inhibitor project, dose response (AID 652040); format: functional, cell-based;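 also: potency for signal decrease marking cytotoxic or nonspecific inhibition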
[16] = HIV-1 AD8 envelope cell-cell fusion blockers – cherry-pick, dose response (AID 652062); format: functional, cell-based;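 also: luciferase signal from cell-cell fusion driven by HIV-1 clade B AD8 Env; potency is for inhibitors of fusion seen as a drop in luminescence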
Beta-galactosidase = Beta-galactosidase (Escherichia coli, UniProt Q8VNN2); experiment: Dose response counterscreen for EBI2 assay utilizing the enzyme, b-galactosidase.; format: functional
[17] = viability loss in HeLa cells – cytotoxicity control for MgcRacGAP inhibitor project, dose response (AID 624300); format: functional
[18] = biological target: T1, Rac GTPase-activating protein 1 (Homo sapiens, UniProt Q9H0H5); experiment: blockers of MgcRacGAP-driven Rac1 GTP hydrolysis – biochemical, ADP Hunter fluorescence, primary and confirmatory, confirmation (AID 624330); format: functional
T1 sequence (Q9H0H5 whole entry): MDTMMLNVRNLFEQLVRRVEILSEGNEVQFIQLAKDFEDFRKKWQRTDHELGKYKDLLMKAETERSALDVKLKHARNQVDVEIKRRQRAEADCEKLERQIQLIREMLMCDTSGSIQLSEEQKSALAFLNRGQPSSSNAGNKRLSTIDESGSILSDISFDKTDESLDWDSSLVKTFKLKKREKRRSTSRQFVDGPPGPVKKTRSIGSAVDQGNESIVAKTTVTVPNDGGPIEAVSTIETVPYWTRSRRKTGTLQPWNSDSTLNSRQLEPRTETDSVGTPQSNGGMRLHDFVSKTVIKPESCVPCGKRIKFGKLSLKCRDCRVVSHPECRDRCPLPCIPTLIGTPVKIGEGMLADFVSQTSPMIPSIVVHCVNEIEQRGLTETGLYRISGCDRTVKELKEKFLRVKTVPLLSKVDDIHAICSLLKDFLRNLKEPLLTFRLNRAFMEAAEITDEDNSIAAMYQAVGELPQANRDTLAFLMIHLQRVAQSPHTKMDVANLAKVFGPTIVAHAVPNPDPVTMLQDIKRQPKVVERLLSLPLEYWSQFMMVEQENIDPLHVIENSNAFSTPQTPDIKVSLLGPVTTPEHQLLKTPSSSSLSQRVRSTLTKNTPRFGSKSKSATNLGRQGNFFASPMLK

[19] = biological target: T2, Histone-lysine N-methyltransferase NSD2 (Homo sapiens, UniProt O96028); format: biochemical
T2 sequence (O96028 whole entry): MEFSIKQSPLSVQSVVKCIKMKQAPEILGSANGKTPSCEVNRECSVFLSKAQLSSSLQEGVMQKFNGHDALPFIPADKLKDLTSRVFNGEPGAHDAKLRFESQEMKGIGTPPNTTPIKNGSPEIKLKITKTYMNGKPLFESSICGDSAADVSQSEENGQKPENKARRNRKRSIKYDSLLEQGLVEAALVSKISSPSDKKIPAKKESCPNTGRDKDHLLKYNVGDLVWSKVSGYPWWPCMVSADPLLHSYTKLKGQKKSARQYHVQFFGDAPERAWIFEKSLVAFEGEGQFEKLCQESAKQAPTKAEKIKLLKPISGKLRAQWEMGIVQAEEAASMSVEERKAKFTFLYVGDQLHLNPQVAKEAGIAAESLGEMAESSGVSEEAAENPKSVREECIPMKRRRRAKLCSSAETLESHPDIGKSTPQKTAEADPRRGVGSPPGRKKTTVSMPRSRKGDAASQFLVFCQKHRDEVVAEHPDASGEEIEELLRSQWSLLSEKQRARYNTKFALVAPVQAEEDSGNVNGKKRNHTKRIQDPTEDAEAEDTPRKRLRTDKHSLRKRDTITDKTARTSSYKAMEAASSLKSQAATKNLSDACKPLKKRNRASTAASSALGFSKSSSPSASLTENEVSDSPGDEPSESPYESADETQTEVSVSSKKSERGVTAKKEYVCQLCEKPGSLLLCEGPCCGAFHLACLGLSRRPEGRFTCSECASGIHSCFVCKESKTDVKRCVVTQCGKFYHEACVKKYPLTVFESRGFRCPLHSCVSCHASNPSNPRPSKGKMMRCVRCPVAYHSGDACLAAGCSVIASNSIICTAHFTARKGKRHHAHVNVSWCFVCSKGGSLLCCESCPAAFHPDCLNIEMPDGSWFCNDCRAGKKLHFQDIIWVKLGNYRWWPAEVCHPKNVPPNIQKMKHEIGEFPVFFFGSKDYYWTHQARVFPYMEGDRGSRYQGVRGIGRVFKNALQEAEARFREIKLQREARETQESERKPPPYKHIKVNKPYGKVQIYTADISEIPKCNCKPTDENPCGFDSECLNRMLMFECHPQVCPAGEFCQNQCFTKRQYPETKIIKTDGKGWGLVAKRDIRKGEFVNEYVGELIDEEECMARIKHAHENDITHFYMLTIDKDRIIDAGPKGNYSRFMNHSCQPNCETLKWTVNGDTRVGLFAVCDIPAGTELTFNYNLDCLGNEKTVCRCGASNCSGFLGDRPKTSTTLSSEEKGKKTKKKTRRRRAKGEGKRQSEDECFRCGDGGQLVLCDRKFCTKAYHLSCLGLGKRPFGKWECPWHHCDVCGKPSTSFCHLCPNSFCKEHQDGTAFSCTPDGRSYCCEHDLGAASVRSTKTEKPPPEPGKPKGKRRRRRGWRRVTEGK

[20] = biological target: T3, Methionyl-tRNA synthetase, putative (Trypanosoma brucei brucei, UniProt Q38C91); format: functional, Trypanosoma brucei brucei strain 927/4 GUTat10.1
T3 sequence (Q38C91 whole entry): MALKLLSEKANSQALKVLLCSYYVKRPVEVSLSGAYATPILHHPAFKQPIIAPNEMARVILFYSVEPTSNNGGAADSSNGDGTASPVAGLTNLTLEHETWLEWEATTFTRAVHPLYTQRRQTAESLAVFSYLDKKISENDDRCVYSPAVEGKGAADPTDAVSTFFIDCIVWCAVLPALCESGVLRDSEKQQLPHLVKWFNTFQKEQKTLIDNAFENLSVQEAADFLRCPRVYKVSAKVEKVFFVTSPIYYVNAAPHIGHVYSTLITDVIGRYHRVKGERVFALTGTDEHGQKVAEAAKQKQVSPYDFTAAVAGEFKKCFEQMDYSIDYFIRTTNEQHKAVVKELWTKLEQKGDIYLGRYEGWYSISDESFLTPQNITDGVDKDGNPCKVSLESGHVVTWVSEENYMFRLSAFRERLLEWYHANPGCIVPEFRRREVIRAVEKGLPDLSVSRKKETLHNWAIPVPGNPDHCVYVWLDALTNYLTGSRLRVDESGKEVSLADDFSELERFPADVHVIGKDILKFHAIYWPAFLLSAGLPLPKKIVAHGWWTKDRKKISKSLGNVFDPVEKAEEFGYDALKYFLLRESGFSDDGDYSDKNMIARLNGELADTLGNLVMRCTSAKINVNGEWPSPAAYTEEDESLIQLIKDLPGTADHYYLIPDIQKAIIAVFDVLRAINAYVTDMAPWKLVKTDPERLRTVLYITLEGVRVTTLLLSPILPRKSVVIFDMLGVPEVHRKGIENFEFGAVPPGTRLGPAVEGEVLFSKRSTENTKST

[21] = Counterscreen for inhibitors of Trypanosoma brucei methionyl tRNA synthetase (MetRS): Luminescence-based cell-based high throughput dose response assay to identify compounds that are cytotoxic to Jurkat human T lymphocyte cells.; format: functional
[22] = biological target: T3, Methionyl-tRNA synthetase, putative; format: functional, Trypanosoma brucei brucei strain 927/4 GUTat10.1; remark: listed apart in the source
[23] = activation of miR-122 Renilla sensor silencing – cell-based, Huh7 psiCHECK-miR122, Renilla luciferase, cherry-picked, dose response (AID 651956); format: functional;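 also: huh7 hepatoma cells stably carrying a psiCHECK-2 miR-122 sensor plasmid; renilla luciferase signal reporting endogenous miR-122 activity after 48 h compound exposure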
[24] = general mammalian cell viability loss – activator set, cherry-pick, cytotoxicity control for miR-122 modulator project, dose response (AID 720690); format: functional, cell-based;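 also: HEK293T human cells scored for general mammalian cytotoxicity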

Paired box protein Pax-8, sequence (Q06710 whole entry): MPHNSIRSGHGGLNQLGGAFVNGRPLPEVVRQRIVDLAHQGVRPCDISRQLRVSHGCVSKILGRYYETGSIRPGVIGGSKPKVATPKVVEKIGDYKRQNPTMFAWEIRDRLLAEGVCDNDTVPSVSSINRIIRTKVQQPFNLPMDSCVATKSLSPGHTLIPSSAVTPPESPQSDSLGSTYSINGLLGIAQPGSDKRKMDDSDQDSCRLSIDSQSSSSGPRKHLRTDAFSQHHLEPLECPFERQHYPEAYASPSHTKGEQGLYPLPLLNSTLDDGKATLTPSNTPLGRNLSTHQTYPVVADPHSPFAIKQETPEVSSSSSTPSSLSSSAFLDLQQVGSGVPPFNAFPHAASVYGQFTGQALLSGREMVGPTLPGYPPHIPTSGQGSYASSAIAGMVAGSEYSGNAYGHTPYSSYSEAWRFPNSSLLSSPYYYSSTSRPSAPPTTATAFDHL
Nuclear receptor subfamily 0 group B member 1, sequence (P51843 whole entry): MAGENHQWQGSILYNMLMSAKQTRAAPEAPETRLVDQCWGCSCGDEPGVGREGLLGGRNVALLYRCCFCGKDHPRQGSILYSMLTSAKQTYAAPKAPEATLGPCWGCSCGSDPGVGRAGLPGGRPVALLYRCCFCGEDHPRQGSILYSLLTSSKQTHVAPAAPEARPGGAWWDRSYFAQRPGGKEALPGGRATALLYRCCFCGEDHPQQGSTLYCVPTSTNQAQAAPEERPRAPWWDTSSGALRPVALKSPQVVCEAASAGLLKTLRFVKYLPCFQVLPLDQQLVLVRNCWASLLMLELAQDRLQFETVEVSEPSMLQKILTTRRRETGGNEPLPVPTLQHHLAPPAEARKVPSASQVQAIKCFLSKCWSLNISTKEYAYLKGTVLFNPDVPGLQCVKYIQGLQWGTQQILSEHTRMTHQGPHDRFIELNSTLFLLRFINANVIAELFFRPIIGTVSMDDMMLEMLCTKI
Beta-galactosidase, sequence (Q8VNN2 whole entry): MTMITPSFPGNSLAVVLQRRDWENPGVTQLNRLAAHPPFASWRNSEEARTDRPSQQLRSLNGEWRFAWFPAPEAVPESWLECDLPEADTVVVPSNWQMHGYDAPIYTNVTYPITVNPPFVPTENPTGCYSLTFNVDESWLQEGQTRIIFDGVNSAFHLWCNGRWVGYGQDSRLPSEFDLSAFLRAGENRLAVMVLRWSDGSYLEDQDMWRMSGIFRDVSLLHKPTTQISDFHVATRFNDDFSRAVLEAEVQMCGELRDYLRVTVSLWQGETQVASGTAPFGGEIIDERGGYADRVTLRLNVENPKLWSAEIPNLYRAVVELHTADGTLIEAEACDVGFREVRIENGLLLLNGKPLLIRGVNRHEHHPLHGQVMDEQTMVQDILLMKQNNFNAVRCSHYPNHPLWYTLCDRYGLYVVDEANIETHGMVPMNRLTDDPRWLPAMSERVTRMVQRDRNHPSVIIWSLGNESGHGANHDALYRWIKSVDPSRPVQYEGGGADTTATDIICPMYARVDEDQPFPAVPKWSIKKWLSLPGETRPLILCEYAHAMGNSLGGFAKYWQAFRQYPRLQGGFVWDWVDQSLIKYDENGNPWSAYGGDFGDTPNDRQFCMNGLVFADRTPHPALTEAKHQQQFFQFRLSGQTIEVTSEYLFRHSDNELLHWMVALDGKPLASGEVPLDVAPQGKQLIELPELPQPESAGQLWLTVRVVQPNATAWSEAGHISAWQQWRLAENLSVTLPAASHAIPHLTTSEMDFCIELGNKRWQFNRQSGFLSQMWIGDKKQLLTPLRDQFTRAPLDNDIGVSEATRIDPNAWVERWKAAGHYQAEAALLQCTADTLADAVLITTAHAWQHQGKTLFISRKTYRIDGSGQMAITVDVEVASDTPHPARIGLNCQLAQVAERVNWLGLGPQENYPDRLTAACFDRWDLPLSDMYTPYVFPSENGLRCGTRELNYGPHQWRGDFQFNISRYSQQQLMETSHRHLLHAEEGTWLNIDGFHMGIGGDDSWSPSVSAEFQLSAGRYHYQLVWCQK

In the case of `O=C(c1ccc(F)cc1)N1CC(=O)N2[C@@H](CO)[C@@H](c3ccc(C#Cc4ccc(F)cc4)cc3)[C@@H]2C1`, the AC50 (Paired box protein Pax-8) is reported as 9.4 µM (active), the AC50 [1] is reported as 7.81 µM (active) and the AC50 [2] is reported as 23 µM (active). For the same compound, the AC50 [3] was 2.16 µM (active) and the AC50 [4] was > 70 µM (inactive).
In the case of `CN1CCN(Cc2cc(Cl)c3cccnc3c2OC(=O)c2cccs2)CC1`, the AC50 [5] is reported as 26 µM (active).
In the case of `CCC1CN(S(=O)(=O)c2ccc3c(c2)NC(=O)CC(=O)N3)c2cc(Cl)ccc2O1` (centres undefined), the AC50 (Vero) is reported as 27.7 µM (active) and the AC50 (A549) is reported as 28.5 µM (active).
With `O/N=C/c1ccn(-c2ccc(Br)cc2)c1` the IC50 (cells) was > 67.5 µM (inactive) and the IC50 [6] was > 67.5 µM (inactive).
With `Oc1nc2ccccc2n1C1CCN(C(CCc2ccccc2)c2nnnn2-c2ccc3c(c2)OCCO3)CC1` (centres undefined) the AC50 (Paired box protein Pax-8) was 1.54 µM (active), the AC50 [7] was 7.65 µM (active) and the AC50 [8] was 16.5 µM (active). The AC50 [9] was 9.66 µM (active), the AC50 [3] was 10.8 µM (active) and the AC50 [10] was 2.86 µM (active). The AC50 [11] was 14.5 µM (active).
In the case of `S=C(NCCc1ccccc1)N1Cc2cc(N3CCCCC3)ccc2-n2nncc2C1`, the AC50 [12] is reported as 5.34 µM (active), the AC50 [13] is reported as 60.7 µM (active) and the AC50 [14] is reported as 9.8 µM (active). The AC50 [15] was 7.92 µM (active) and the AC50 [16] was 9.73 µM (active).
With `O=C(COc1ccc(Cl)cc1)N1CCN(C/C=C/c2ccccc2)CC1` the IC50 (Beta-galactosidase) was > 80 µM (inactive).
In the case of `CCOc1ccc(/C=N/NC(=O)NC23CC4CC(CC(C4)C2)C3)cc1O`, the CC50 [17] is reported as 100 µM (active) and the IC50 [18] is reported as 148 µM (active).
For `Cc1ccccc1-c1nnc2n1N=C(c1ccc(O)c(O)c1)CS2`, the IC50 (cells) was > 67.6 µM (inactive), the IC50 [6] was > 67.6 µM (inactive) and the AC50 [19] was > 20 µM (inactive).
With `COc1cccc(-c2c[nH]c(C(O)c3cc(Cl)cc(Cl)c3)n2)c1` (centres undefined) the IC50 [20] was 10.3 µM (inactive), the IC50 [21] was 83.3 µM (inactive) and the IC50 [22] was 4.9 µM (active).
In the case of `CN(C)C(=O)c1ccc(-c2cc3onc(-c4ccccc4)c3c(=O)n2C)cc1`, the AC50 [5] is reported as 26 µM (active).
With `COc1ccccc1NC(=O)N1CCCCN2[C@H](CO)[C@H](c3ccc(C#CC4CCCC4)cc3)[C@H]2C1` the AC50 [23] was 21.9 µM (active) and the AC50 [24] was 12.6 µM (active).
For `CC1CCCN(CCOc2cccc(Oc3ccccc3)c2)C1` (centres undefined), the AC50 (Vero) was 2.31 µM (active) and the AC50 (A549) was 1.65 µM (active).
For `CCN1C(=O)C(CC(=O)Nc2ccc(F)cc2)N(CCc2ccc(OC)cc2)C1=S` (centres undefined), the IC50 [20] was 13.2 µM (inactive), the IC50 [21] was 83.3 µM (inactive) and the IC50 [22] was 10.5 µM (inactive).
